# Measured values published in US20210137911A1, “NOVEL CHRONOTHERAPY BASED ON CIRCADIAN RHYTHMS” (THE TRUSTEES OF THE UNIVERSITY OF PENNSYLVANIA, priority 2014, published 2021).
# Read-outs that look alike come from different tables or passages of the source.
# What was measured:
# [1] = Trial of bedtime versus awakening administered Valsartan, blood pressure; assay type: in vivo
# From the text: Taking an angiotensin receptor blocker (ARB) or an […] (ACE) inhibitor before bedtime is known to cause a drop in blood pressure. […] Thus, current treatment methods are insufficient to induce a dip in non-dippers.
# [2] = cited from earlier work
# [3] = cited from earlier work; remark: listed apart in the source
smiles,measurement,setting,value
CCCCC(=O)N(Cc1ccc(-c2ccccc2-c2nnn[nH]2)cc1)[C@H](C(=O)O)C(C)C [Valsartan],"net blood pressure difference bedtime vs awakening, first value of printed pair",[1]; bedtime minus awakening,8 mmHg
same,"net blood pressure difference bedtime vs awakening, second value of printed pair",[1]; bedtime minus awakening,6 mmHg
same,better result of bedtime group than the awakening group,[1]; bedtime vs awakening group,10 mmHg
same,time at which concentration in plasma reaches the maximum after administration,[2],2 to 4 h
C#CCN(C)[C@H](C)Cc1ccccc1 [Selegiline],½ Life,[3]; in vivo,1.2 h
CCOc1cc(CC(=O)N[C@@H](CC(C)C)c2ccccc2N2CCCCC2)ccc1C(=O)O [Repaglinide],½ Life,[3]; in vivo,1 h
O=C(O[C@H]1C[N+]2(CCCOc3ccccc3)CCC1CC2)C(O)(c1cccs1)c1cccs1 [Aclidinium],½ Life,[3]; half-life of top selling therapeutic compounds (Table 1),2.4 h
